Test results: PubChem BioAssay (NCI)
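Step 1: Grow cells in 96-well plates. Step 2: Expose to compound for 48 hours at 5 concentrations. Step 3: Interpolate endpoints linearly; if unreached, use highest concentration. The concentration for full growth arrest is given as TGI.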

What was measured:
Assay in all cases: inhibition of tumour cell growth, NCI panel, 48 h
BT-549 breast = system: BT-549 breast
HOP-92 NSCLC = system: HOP-92 NSCLC
IGROV1 ovarian = system: IGROV1 ovarian
MCF7 breast = system: MCF7 breast
MDA-MB-231 breast = system: MDA-MB-231 breast
NCI-H226 lung = system: NCI-H226 lung
NCI-H460 lung = system: NCI-H460 lung
NCI/ADR-RES ovarian = system: NCI/ADR-RES ovarian
OVCAR-4 ovarian = system: OVCAR-4 ovarian
OVCAR-8 ovarian = system: OVCAR-8 ovarian
RPMI-8226 leukemia = system: RPMI-8226 leukemia
SK-MEL-2 melanoma = system: SK-MEL-2 melanoma
SK-OV-3 ovarian = system: SK-OV-3 ovarian
SN12C renal = system: SN12C renal
SR leukemia = system: SR leukemia
SW-620 colon = system: SW-620 colon
UACC-62 melanoma = system: UACC-62 melanoma
M14 melanoma = system: M14 melanoma
OVCAR-3 ovarian = system: OVCAR-3 ovarian
HL-60(TB) leukemia = system: HL-60(TB) leukemia

| Structure (SMILES) | TGI (BT-549 breast) | TGI (HOP-92 NSCLC) | TGI (IGROV1 ovarian) | TGI (MCF7 breast) | TGI (MDA-MB-231 breast) | TGI (NCI-H226 lung) | TGI (NCI-H460 lung) | TGI (NCI/ADR-RES ovarian) | TGI (OVCAR-4 ovarian) | TGI (OVCAR-8 ovarian) | TGI (RPMI-8226 leukemia) | TGI (SK-MEL-2 melanoma) | TGI (SK-OV-3 ovarian) | TGI (SN12C renal) | TGI (SR leukemia) | TGI (SW-620 colon) | TGI (UACC-62 melanoma) | TGI (M14 melanoma) | TGI (OVCAR-3 ovarian) | TGI (HL-60(TB) leukemia) |
| --- | --- | --- | --- | --- | --- | --- | --- | --- | --- | --- | --- | --- | --- | --- | --- | --- | --- | --- | --- | --- |
| CCCC[Si](CCCC)(CCCC)O[C@@H](/C=C/C(=O)OCC)[C@H](Cc1ccccc1)O[Si](CCCC)(CCCC)CCCC | > 100 µM | > 100 µM | > 100 µM | > 100 µM | > 100 µM | > 100 µM | > 100 µM | > 100 µM | > 100 µM | > 100 µM | > 100 µM | > 100 µM | > 100 µM | > 100 µM | > 100 µM | > 100 µM | > 100 µM |  |  |  |
| O=C(CN1CCCC1)Nc1ccc2sc3ccccc3c(=O)c2n1 | 70 µM | 74.6 µM | 66.5 µM | > 100 µM | > 100 µM |  | > 100 µM | 54.5 µM | > 100 µM | 52.5 µM | 63 µM | 49.1 µM | 58.7 µM | > 100 µM | > 100 µM | 33.6 µM | 36.6 µM | 54.4 µM | > 100 µM |  |
| CC(C)=CCC/C(C)=C/CC/C(C)=C/CC/C(C=O)=C/CC/C(C)=C\CC/C(C)=C/CC/C(C)=C/CC/C(C)=C/CC1=CC(=O)C=CC1=O | > 100 µM | > 100 µM | > 100 µM | > 100 µM | > 100 µM |  | > 100 µM | > 100 µM | > 100 µM | > 100 µM | > 100 µM | > 100 µM | > 100 µM | > 100 µM | > 100 µM | > 100 µM | 53.1 µM | > 100 µM | > 100 µM |  |
| COc1ccc(N=C2C(=Nc3ccc(OC)cc3)N(c3ccccc3[N+](=O)[O-])C(=S)N2c2ccc(OC)cc2)cc1 | > 100 µM | > 100 µM | > 100 µM | > 100 µM | 90.9 µM | > 100 µM |  | > 100 µM |  | > 100 µM | > 100 µM | > 100 µM | > 100 µM | > 100 µM | > 100 µM | > 100 µM | > 100 µM | > 100 µM | > 100 µM |  |
| COc1ccc(C2Oc3c(cccc3OC)C=C2[N+](=O)[O-])cc1 (centres undefined) | 4.32 µM |  | 9.3 µM | 10.8 µM | 13.6 µM |  | 4.15 µM | 14.5 µM | 10.1 µM | 11.2 µM | > 100 µM |  | 15.3 µM | 5.66 µM | > 100 µM |  | 5.72 µM | 2.15 µM | 4.75 µM | > 100 µM |
| Clc1ccc(N=Cc2cc3cc(Br)ccc3nc2Cl)cc1 | > 50 µM | > 50 µM | > 50 µM |  |  | > 50 µM | > 50 µM | > 50 µM | 24.2 µM | > 50 µM | 38.4 µM | 48.3 µM |  | > 50 µM | 42.2 µM | > 50 µM |  | > 50 µM |  | 46.4 µM |
| O=C1/C(=C/c2cccc3ccccc23)Cc2ccccc21 | 29.9 µM |  | > 100 µM | 38.9 µM |  | 49.6 µM | > 100 µM | > 100 µM | 53 µM | > 100 µM | > 100 µM |  | 47.2 µM | > 100 µM | > 100 µM | > 100 µM | > 100 µM | > 100 µM | 91.3 µM | > 100 µM |
| COc1cc(C2SC(N)=Nc3c2c(C)nn3C(=O)Cc2ccccc2)ccc1O (centres undefined) | > 100 µM |  | > 100 µM | > 100 µM | > 100 µM | > 100 µM | > 100 µM |  |  | > 100 µM | > 100 µM |  | > 100 µM | > 100 µM | > 100 µM | > 100 µM | > 100 µM | > 100 µM |  | > 100 µM |
| O=C(Nc1ccc(F)cc1)c1cc2ccc(O)cc2oc1=Nc1cccc(F)c1 | 75.4 µM |  | 49.7 µM | > 100 µM |  |  | > 100 µM | > 100 µM | > 100 µM | 41.6 µM | > 100 µM | > 100 µM | > 100 µM | > 100 µM | > 100 µM | > 100 µM | > 100 µM |  | > 100 µM | 83 µM |
| O=C(O)C1CCCN1Cc1ccc2c(c1)OCO2 (centres undefined) | > 100 µM | > 100 µM | > 100 µM | > 100 µM | > 100 µM | > 100 µM | > 100 µM | > 100 µM | > 100 µM | > 100 µM | > 100 µM | > 100 µM | > 100 µM | > 100 µM | > 100 µM | > 100 µM | > 100 µM | > 100 µM | > 100 µM |  |
| COC(=O)c1cc(/C=C2\Cc3cc4c(cc3C2=O)CCC4)cc2c1CCC2 | > 100 µM |  | > 100 µM | > 100 µM | > 100 µM | > 100 µM | > 100 µM | > 100 µM | > 100 µM | > 100 µM | > 100 µM | > 100 µM | > 100 µM | > 100 µM | > 100 µM | > 100 µM | > 100 µM | > 100 µM | > 100 µM | > 100 µM |
| Cc1ccc2cccc(OC(=O)c3cc4c(cc3Cl)Sc3nccn3S4(=O)=O)c2n1 | > 78.1 µM | 68 µM | 17.5 µM | 18.4 µM | 29.3 µM | > 75.7 µM | 10.4 µM | 46.2 µM | 25.1 µM | 28.8 µM | 7.03 µM | 27.1 µM | 84.2 µM | > 100 µM | 16.7 µM | 40.3 µM | 32.6 µM | 25.7 µM | 11.6 µM |  |
| CC1CC(=O)NC2CC1C2(C)C (centres undefined) | > 100 µM | > 100 µM | > 100 µM | > 100 µM | > 100 µM | > 100 µM | > 100 µM |  | > 100 µM | > 100 µM | > 100 µM | > 100 µM |  | > 100 µM | > 100 µM | > 100 µM | > 100 µM | > 100 µM | > 100 µM | > 100 µM |
